Laboratory results: patent US20200316213A1, “MACROMOLECULAR PLATFORM FOR TARGETING SCAVENGER RECEPTOR A1” (THE UNITED STATES OF AMERICA, AS REPRESENTED BY THE …, priority 2017, published 2020)

What was measured:
[1] = male, Sprague-Dawley, rat, in vivo, iv, 10 mg/kg
in vivo = conditions: male, Sprague-Dawley, rat, iv, 10 mg/kg
scavenger receptor A1 = target: T1, scavenger receptor A1 (Mus musculus, UniProt P30204); test: Competitive inhibition of polymer-488 cell uptake by poly I / poly C in Raw 264.7 macrophages; type: cell-based; conditions: for inhibition of scavenger receptor interaction of polymer-488 (fluorescence): various concentrations of polymer-488 with inhibitor, Raw 264.7 macrophages (FIG. 3); for inhibition of polymer-488 fluorescence: various inhibitor concentrations, polymer-488 concentration constant, 37° C. 3 hours (FIG. 4)
T1 construct: endogenous in cells; host or cells: Raw 264.7 macrophages
T1 sequence (P30204 1-458): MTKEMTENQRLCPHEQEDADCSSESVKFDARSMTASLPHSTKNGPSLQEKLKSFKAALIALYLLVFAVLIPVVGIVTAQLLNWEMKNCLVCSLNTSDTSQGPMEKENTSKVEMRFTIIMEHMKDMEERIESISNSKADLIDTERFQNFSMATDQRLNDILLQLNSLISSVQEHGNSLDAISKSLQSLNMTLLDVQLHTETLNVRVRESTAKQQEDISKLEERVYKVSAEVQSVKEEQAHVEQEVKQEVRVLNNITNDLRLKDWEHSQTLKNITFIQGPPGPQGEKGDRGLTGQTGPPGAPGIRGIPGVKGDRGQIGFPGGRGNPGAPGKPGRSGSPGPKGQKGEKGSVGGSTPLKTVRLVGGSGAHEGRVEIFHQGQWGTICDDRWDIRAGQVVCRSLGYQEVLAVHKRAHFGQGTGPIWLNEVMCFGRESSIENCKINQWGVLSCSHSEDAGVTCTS
Procedure: The fluorescently labelled poly(L-lysine succinylated) was also tested for cell uptake in a macrophage cell line Raw 264.7 in the presence of competitive inhibitors and relevant controls. […] At higher concentrations of polymer-488, fluorescence is seen due to competing off the poly I.
In a follow up study, cells were treated with various concentrations of either poly I or poly C while polymer-488 concentration remained constant. In this study, Raw 264.7 cells were incubated overnight at 400,000 cells/mL. The cells were treated with various concentrations of polymer-488 and either 200 μg/mL poly I, 200 μg/mL poly C, or no inhibitor. The cells were incubated at 37° C. for 3 hours, washed 3 times with media, and fluorescence measured.

Compound	Tlast [1] [h]	Tmax (in vivo) [h]	Cmax (in vivo; Cmax) [ng/g]	inhibition of scavenger receptor interaction of polymer-488 (fluorescence) (scavenger receptor A1)	inhibition of polymer-488 fluorescence (scavenger receptor A1)
Nc1nc(=O)n([C@@H]2CS[C@H](CO)O2)cc1F [Emtricitabine, emtricitabine]	96	4	86.7		
polycytidylic acid [poly C]				not with poly C	virtually no inhibition of fluorescence
polyinosinic acid [poly I]				inhibition of scavenger receptor interaction	dose-dependent inhibition
